Data taken from ChEMBL document CHEMBL5096127, “Using ChEMBL to complement schistosome drug discovery” (2023).
Activity calls are given as the source filed them. The rule behind the calls is not given here. Square brackets hold non-standard residues; d marks the D form. Peptide text beside a SMILES is read from it. * marks the point of attachment. Benzoyl(4-tBu) = CC(C)(C)c1ccc(C(=O)*)cc1; Lys(Et2) = CCN(CC)CCCC[C@H](N)C(=O)O; Cbz = O=C(OCc1ccccc1)*

Tests used:
Schistosoma mansoni [1] = test: In vitro activity on S. mansoni schistosomula at 10 uM; assay type: functional, organism-based; design: test concentration 10 uM, temperature 37 degree C, time incubation 72 h; details: Puerto Rican
Schistosoma mansoni [2] = test: In vitro activity on S. mansoni schistosomula at 50 uM; assay type: functional, organism-based; design: test concentration 50 uM, temperature 37 degree C, time incubation 72 h; details: Puerto Rican
Schistosoma mansoni [3] = assay type: functional, Puerto Rican; details: temperature 37 degree C; tested at 10 uM; Worm movement inhibition (compared to DMSO control)_lower value 0 %; Worm movement inhibition (compared to DMSO control)_upper value 100 %
Schistosoma mansoni [4] = test: EC50 on S. mansoni schistosomula; assay type: functional, organism-based; details: Puerto Rican
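Throughout, for Worm movement inhibition: in vitro assay using adult worms.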

SMILES	In vitro activity (Schistosoma mansoni [1])	In vitro activity (Schistosoma mansoni [2])	Worm movement inhibition (Schistosoma mansoni [3])	EC50 (Schistosoma mansoni [4])
O=C(CCCCCCC(=O)Nc1cccnc1)NO	inactive	inactive		
Cc1cccc(-c2[nH]c(C(C)(C)C)nc2-c2ccc3c(c2)OCO3)n1	inactive	inactive		
CC(C)C[C@@H](C=O)NC(=O)[C@H](CC(C)C)NC(=O)[C@H](CC(C)C)NC(=O)OCc1ccccc1 (Cbz-Leu-Leu-Leu-aldehyde)	inactive	Active		
CC1(C)Cc2c(sc(NC(=S)NC(=O)c3ccccc3)c2C(=O)O)CO1	inactive	inactive		
CC(/C=C/C(=O)NO)=C\[C@@H](C)C(=O)c1ccc(N(C)C)cc1 [TRICHOSTATIN]	Active	Active	8.13%	558 nM
CC(C)c1cccc(=O)c(O)c1	inactive	inactive		
CC(=O)Nc1ccc(C(=O)Nc2cc(-c3cccs3)ccc2N)cc1	inactive	inactive		
COc1ncc(-c2ccc3nc(N)n(-c4ccccc4C(F)(F)F)c(=O)c3c2)cc1S(=O)(=O)Nc1ccc(F)cc1F	inactive	Active		
COc1ccc2c(c1)[nH]c1c(C)nccc12	inactive	inactive		
CNC(=O)c1ccc(Nc2nc(OC3CCCC3)c3c(-c4ccc5nc(C)oc5c4)c[nH]c3n2)c(OC)c1	inactive	inactive		
Cc1nc2c(OCc3ccccc3)cccn2c1CC#N	inactive	inactive		
O=C1NCCCc2c1oc1ccc(O)cc21	inactive	inactive		
Fc1ccc(Cl)cc1-c1nc(Nc2ccncc2)c2nccnc2n1	inactive	inactive		
CN(C)Cc1c(C(=O)NCCOc2ccc(C(=O)NO)cc2)oc2ccccc12	inactive	Active		
Cc1nccc(-c2cn(Cc3ccccc3)c3cnccc23)n1	inactive	Active		
CCN(CC)CCCC[C@H](NC(=O)[C@H](CC(C)C)NC(=O)[C@H](C)NC(=O)[C@H](Cc1ccccc1)NC(=O)c1ccc(C(C)(C)C)cc1)C(=O)N[C@@H](CO)C(=O)OC ({Benzoyl(4-tBu)}-FAL[Lys(Et2)]S-OMe)	inactive	inactive		
Cc1cc(Nc2cc(N3CCN(C)CC3)nc(Sc3ccc(NC(=O)C4CC4)cc3)n2)n[nH]1	inactive	Active		
c1ccc(-c2n[nH]cc2-c2ccnc3ccccc23)nc1	inactive	inactive		
O=C(O[C@H]1[C@@H]2C=CO[C@@H](O[C@@H]3O[C@H](CO)[C@@H](O)[C@H](O)[C@H]3O)[C@@H]2[C@@]2(CO)O[C@@H]12)c1ccc(O)cc1	inactive	inactive		
CNC(=O)c1c(F)cccc1Nc1nc(Nc2cc3c(cc2OC)CCN3C(=O)CN(C)C)nc2[nH]ccc12	inactive	Active		
CC(C)(C)c1cnc(CSc2cnc(NC(=O)C3CCNCC3)s2)o1	inactive	inactive		
CC(C)NCCCn1c(Sc2cc3c(cc2I)OCO3)nc2c(N)ncnc21	inactive	Active		

SMILES	In vitro activity (Schistosoma mansoni [1])	In vitro activity (Schistosoma mansoni [2])	Worm movement inhibition (Schistosoma mansoni [3])	EC50 (Schistosoma mansoni [4])
CC(O)(CC(=O)O)CC(=O)O	inactive	inactive		
CC[C@@]1(O)C(=O)OCc2c1cc1n(c2=O)Cc2cc3ccccc3nc2-1	inactive	Active		
C[C@H]1CCCC(=O)CCCCCc2cc(O)cc(O)c2C(=O)O1	inactive	inactive		
C#Cc1cccc(Nc2ncnc3cc(OC)c(OCCCCCCC(=O)NO)cc23)c1	inactive	inactive		
CSc1cccc(Nc2ncc3cc(-c4c(Cl)cccc4Cl)c(=O)n(C)c3n2)c1	inactive	inactive		
CCCCc1nc2cc(/C=C/C(=O)NO)ccc2n1CCN(CC)CC	inactive	inactive		
CN(C)CCCn1cc(C2=C(c3c[nH]c4ccccc34)C(=O)NC2=O)c2ccccc21	inactive	Active		
N[C@H]1C[C@@H]1c1ccc(-c2cccc(O)c2)cc1	inactive	Active		
Oc1ccc(Nc2nc(-c3ccc(Cl)cc3)cs2)cc1	inactive	Active		
CN[C@@H]1C[C@H]2O[C@@](C)([C@@H]1OC)n1c3ccccc3c3c4c(c5c6ccccc6n2c5c31)C(=O)NC4	Active	Active		
O=C(c1ccc(/C=C/c2n[nH]c3ccccc23)cc1)N1CCNCC1	inactive	Active		
C[C@]12CC[C@H](O)C[C@H]1CC[C@@H]1[C@@H]2CC[C@]2(C)[C@@H](C3=CC(=O)OC3)CC[C@]12O	inactive	Active		
COc1ncc2cc(C(=O)Nc3cc(C(=O)NCc4cccc(Cl)c4)ccc3Cl)c(=O)[nH]c2n1	inactive	inactive		
COc1ccc(-c2c(-c3ccc(O)cc3O)n[nH]c2C)cc1	inactive	inactive		
CCN(CC)Cc1ccc2cc(COC(=O)Nc3ccc(C(=O)NO)cc3)ccc2c1	inactive	inactive		
O=C(O)C[C@@H]1C(=O)O[C@H]2[C@@H]3OC(=O)c4cc(O)c(O)c(O)c4-c4c(cc(O)c(O)c4O)C(=O)OC[C@H]2O[C@@H](OC(=O)c2cc(O)c(O)c(O)c2)[C@@H]3OC(=O)c2cc(O)c(O)c3c2[C@H]1[C@H](O)C(=O)O3	inactive	inactive		
Nc1nc(Nc2ccc(S(N)(=O)=O)cc2)nn1C(=O)c1c(F)cccc1F	inactive	inactive		
CC(=O)N1CCc2c(c(Nc3ccc(-c4cnn(C)c4)cc3F)nn2[C@H]2CCOC2)C1	inactive	inactive		
Nc1nc(N)c2nc(-c3cccc(O)c3)c(-c3cccc(O)c3)nc2n1	inactive	inactive		
CN1CCN(C(=O)CN[C@H]2C[C@@H]2c2ccc(OCc3ccccc3)cc2)CC1	inactive	Active		
CN1CCC(NC(=O)c2cc(-c3c(O)cc(O)cc3Oc3ccc([N+](=O)[O-])cc3)on2)CC1	inactive	inactive		
NC(=O)c1ccc(-c2nc(-c3ccccn3)c(-c3ccc4c(c3)OCO4)[nH]2)cc1	inactive	Active		

SMILES	In vitro activity (Schistosoma mansoni [1])	In vitro activity (Schistosoma mansoni [2])	Worm movement inhibition (Schistosoma mansoni [3])	EC50 (Schistosoma mansoni [4])
O=C(CCCCCN1C(=O)c2cccc3cccc(c23)C1=O)NO	inactive	inactive		
COc1ccc(-c2nc(N)ncc2-c2csc(C)n2)c(O)c1	inactive	inactive		
CCOC(=O)NCCCC(=O)NCCc1ccccc1	inactive	inactive		
COc1cc(Nc2ncc(F)c(Nc3ccc4c(n3)NC(=O)C(C)(C)O4)n2)cc(OC)c1OC	inactive	inactive		
COc1ccc(F)c(F)c1C(=O)c1cnc(NC2CCN(S(C)(=O)=O)CC2)nc1N	inactive	inactive		
Nc1ccc(-c2ccc(F)cc2)cc1NC(=O)C1CCOCC1	inactive	inactive		
Nc1ncnc2c1ncn2[C@@H]1O[C@H](COP(=O)(O)OP(=O)(O)O)[C@@H](O)[C@H]1O	inactive	inactive		
O=C(/C=C/c1ccc2c(ccn2S(=O)(=O)c2ccccc2)c1)NO	inactive	Active		
C[S+]([O-])c1ccc(-c2nc(-c3ccc(F)cc3)c(-c3ccncc3)[nH]2)cc1 (stereo not given)	inactive	inactive		
Cc1cc(/N=N/c2cc(S(=O)(=O)O)c(C)cc2C)c(N)cc1O	inactive	inactive		
O=C1NC(=O)/C(=C/c2ccc3nccnc3c2)S1	inactive	Active		
CCN1/C(=C/C(C)=O)Sc2ccc(O)cc21	inactive	inactive		
Nc1nc2c(ncn2[C@@H]2O[C@H](COP(=O)(O)OP(=O)(O)O)[C@@H](O)[C@H]2O)c(=O)[nH]1	inactive	inactive		
O=C(O)c1ccc(CN2CCC(CN[C@@H]3C[C@H]3c3ccccc3)CC2)cc1	inactive	inactive		
CCc1cc(-c2[nH]nc(C)c2-c2ccc3c(c2)OCCO3)c(O)cc1O	inactive	Active		
O=C(/C=C/c1ccc(CN(CCO)CCc2c[nH]c3ccccc23)cc1)NO	inactive	Active		
CCN1CCN(Cc2ccc(NC(=O)Nc3ccc(Oc4cc(NC)ncn4)cc3)cc2C(F)(F)F)CC1	inactive	Active		
O=C(NO)c1cnc(NC2(c3ccccc3)CC2)nc1	inactive	inactive		
O=C(CCCCCCNC(=O)c1cnc(N(c2ccccc2)c2ccccc2)nc1)NO	inactive	inactive		
Cc1cccc(-c2nn3c(c2-c2ccnc4ccc(C(N)=O)cc24)CCC3)n1	inactive	inactive		
O=C(NC1CCNCC1)c1n[nH]cc1NC(=O)c1c(Cl)cccc1Cl	inactive	inactive		
O=C1Nc2cc(Br)ccc2/C1=C1/Nc2ccccc2/C1=N\O [6BIO]	Active	Active	95.74%	
